Experimental data taken from patent publication EP0312157A2, “Tetrapeptide renin inhibitors having a novel c-terminal amino acid” (Merck & Co., Inc., priority 1987, dated 1989).
Structures can show the parent of a compound that is named as a salt.

Target: T1, renin (Homo sapiens, UniProt P00797)
T1 sequence (P00797 67-406): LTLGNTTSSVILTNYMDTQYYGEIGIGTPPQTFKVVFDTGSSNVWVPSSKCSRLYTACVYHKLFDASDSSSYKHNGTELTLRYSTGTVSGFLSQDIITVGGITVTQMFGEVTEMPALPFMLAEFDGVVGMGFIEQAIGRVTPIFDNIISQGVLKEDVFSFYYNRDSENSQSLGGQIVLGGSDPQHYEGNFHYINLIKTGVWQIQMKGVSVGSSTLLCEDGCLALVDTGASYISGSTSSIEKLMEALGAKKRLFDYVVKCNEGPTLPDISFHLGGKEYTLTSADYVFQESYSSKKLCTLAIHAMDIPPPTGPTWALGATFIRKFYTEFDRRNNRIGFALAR
Assay: renin inhibition, IC50 (method not described)
Type: biochemical

Compound	IC50 [nM]
CC(C)(C)OC(=O)N[C@@H](Cc1ccccc1)C(=O)N[C@@H](Cc1c[nH]cn1)C(=O)N[C@@H](CC1CCCCC1)[C@@H](O)CC(=O)N[C@@H](CCCCN)C(=O)N[C@H]1CCCCNC1=O [Example 9, N^α-t-butoxycarbonyl-L-phenylalanyl-L-histidyl-(3S,4S)-4-amino-5-cyclohexyl-3-hydroxypentanoyl-L-lysyl-L-3-amino-2-oxoazepine amide hydrochloride]	26.4
CC(C)(C)OC(=O)N[C@@H](Cc1ccccc1)C(=O)N[C@@H](Cc1c[nH]cn1)C(=O)N[C@@H](CC1CCCCC1)[C@@H](O)CC(=O)N[C@@H](CN)C(=O)NCc1ccncc1 [Example 10, N^α-t-butoxycarbonyl-L-phenylalanyl-L-histidyl-(3S,4S)-4-amino-5-cyclohexyl-3-hydroxypentanoyl-L-2,4-diaminopropionyl-4-(aminomethyl)pyridine amide hydrochloride]	37
CC(C)(C)OC(=O)N[C@@H](Cc1ccccc1)C(=O)N[C@@H](Cc1c[nH]cn1)C(=O)N[C@@H](CC1CCCCC1)[C@@H](O)CC(=O)N[C@@H](CCCCN)C(=O)NCC1CCNCC1 [Example 2, N^α-t-butoxycarbonyl-L-phenylalanyl-L-histidyl-{3S,4S)-4-amino-5-cyclohexyl-3-hydroxy-pentanoyl-L-lysyl-4-(aminomethyl)-piperidinamide dihydrochloride]	338
CC(C)(C)OC(=O)NCCOC(=O)N[C@@H](Cc1ccccc1)C(=O)N[C@@H](Cc1c[nH]cn1)C(=O)N[C@@H](CC1CCCCC1)[C@@H](O)CC(=O)N[C@@H](CCCCN)C(=O)NCC1CCNCC1 [Example 26, Boc-NHCH2CH2OCO-Phe-His-ACHPA-Lys-NHCH2(piperidin-4-yl)]	39
CC(C)S(=O)(=O)N[C@@H](Cc1ccccc1)C(=O)N[C@@H](Cc1c[nH]cn1)C(=O)N[C@@H](CC1CCCCC1)[C@@H](O)CC(=O)N[C@@H](CCCCN)C(=O)NCC1CCNCC1 [Example 27, i-PrSO2-Phe-His-ACHPA-Lys-CH2(piperidin-4-yl)]	159
CN(CCc1ccccn1)C(=O)[C@H](CCCCN)NC(=O)C[C@H](O)[C@H](CC1CCCCC1)NC(=O)[C@H](Cc1c[nH]cn1)NC(=O)[C@H](Cc1ccccc1)NC(=O)OC(C)(C)C [Example 5, N^α-t-butoxycarbonyl-L-phenylalanyl-L-histidyl-(3S,4S)-4-amino-5-cyclohexyl-3-hydroxypentanoyl-L-lysyl-2-(2-methylaminoethyl)-pyridinamide acetate]	225
COc1ccc(C[C@H](NC(=O)OC(C)(C)C)C(=O)N[C@@H](Cc2c[nH]cn2)C(=O)N[C@@H](CC2CCCCC2)[C@@H](O)CC(=O)N[C@@H](CCCCN)C(=O)NCc2ccncc2)cc1 [Example 6, N^α-t-butoxycarbonyl-O-methyl-L-tyrosyl-L-histidyl-(3S,4S)-4-amino-5-cyclohexyl-3-hydroxy-pentanoyl-L-lysyl-4-(aminomethyl)pyridine amide]	42
N^α-t-butoxycarbonyl-L-phenylalanyl-L-histidyl-(3S,4S)-4-amino-5-cyclohexyl-3-hydroxypentanoyl-L-lysyl-N-(2-aminoethyl)-morpholine amide dihydrochloride [Example 12]	68.9
NCCCC[C@H](NC(=O)C[C@H](O)[C@H](CC1CCCCC1)NC(=O)[C@H](Cc1c[nH]cn1)NC(=O)[C@H](Cc1ccccc1)NC(=O)N1CCOCC1)C(=O)NCc1ccncc1 [Example 23, N-[(Morpholin-4-yl)carbonyl]Phe-His-ACHPA-Lys-NHCH2(pyridin-4-y1)]	12
CC(C)(C)OC(=O)N[C@@H](Cc1ccccc1)C(=O)N[C@@H](Cc1c[nH]cn1)C(=O)N[C@@H](CC1CCCCC1)[C@@H](O)CC(=O)N[C@@H](CCCCN)C(=O)NCc1ccncc1 [Example 1, N^α-t-butoxycarbonyl-L-Phenylalanyl-L-histidyl-(3S,4S)-4-amino-5-cyclohexyl-3-hydroxypentanoyl-L-lysyl-4-(aminomethyl)pyridine amide hydrochloride]	38
